Data set [1] has as its system FaSSIF/pancreatin. As to the kind of experiment: Fasted-state simulated intestinal fluid/pancreatin assay. The class given is in vitro ADME. The note with it: FaSSIF/USP pancreatin; analytical RP-HPLC. The method, then:
Fresh FaSSIF and USP Pancreatin (FaSSIF/p; Sigma-Aldrich) was prepared according to Galia et al[55]. and used immediately. Peptides were dissolved in pre-warmed FaSSIF before addition of pre-warmed FaSSIF/pancreatin with agitation. Samples were analyzed by analytical RP-HPLC to determine remaining intact peptide by area under the curve.

In data set [2] the test system is human plasma protein. As to the kind of experiment: EScalate equilibrium shift assay, human plasma. In kind it is in vitro ADME. The note with it: EScalate equilibrium shift assay. How it is done: (§1) Binding of peptides to human plasma proteins was determined by the EScalate equilibrium shift assay (Sovicell, Leipzig, Germany), using five dilutions of plasma in phosphate buffered saline and an assumed binding protein concentration of 600 µM. Samples were incubated for 1 h at room temperature then centrifuged to remove the HSA-coated beads. Supernatant samples were analyzed using HPLC (3 µm Phenomenex Aeris Widepore XB-C18 stationary phase) coupled to an electrospray ionization quadrupole time-of-flight mass spectrometer in high resolution accurate mass mode (Agilent, Santa Clara, CA, USA). Unbound fractions were calculated from the concentration-dependent shift in binding equilibrium according to fu=1/1+P/KDPlasma , where P is the concentration of the binding protein in plasma and KDPlasma is the dissociation constant of the compound from plasma proteins in solution.

For data set [3], the system named is rat plasma protein. Briefly: EScalate equilibrium shift assay, rat plasma. The class given is in vitro ADME. The note with it: EScalate equilibrium shift assay.
The test system of data set [4] is dog plasma protein. As to the kind of experiment: EScalate equilibrium shift assay, dog plasma. In kind it is in vitro ADME.
Data set [5] relates to monkey plasma protein. Briefly: EScalate equilibrium shift assay, monkey plasma. In kind it is in vitro ADME. Particulars: EScalate equilibrium shift assay. The method, then:
[The procedure below names another species; the source lists this species under the same test.] as §1

Data set [6] in a line: Bioavailability after intraduodenal administration with permeation enhancers in rats. Particulars: single intraduodenal administration with permeation enhancers (NaCDC and PG), n = 4 per group. The class given is in vivo, rat. The method, then: Male Sprague Dawley rats (Charles River, Shrewsbury, MA, USA) weighing 250–275 g were housed with ad libitum access to standard chow and water. Test peptides were administered via either an intravenous or a duodenal catheter (4 rats per group) after overnight fasting, and food was returned following 4 h blood collection. Blood was collected via a jugular vein catheter at − 5, 15 and 30 min and 1, 2, 4, 8 and 24 h after intravenous dosing, or for intraduodenal groups at 15 min predose and 0.5, 1, 2, 4, 8, 24 and 48 h postdose. Blood was collected in K2EDTA tubes and kept on wet ice prior to 10 min centrifugation (3000 × g) at 5 °C ± 3 °C. Plasma samples were stored at − 70 °C until analysis.
Fifty or seventy μL aliquots of K2EDTA plasma samples were precipitated with 75% acetonitrile (Sigma-Aldrich) in water (J.T. Baker, Phillipsburg, NJ, USA) (v/v) and centrifuged at 2000 × g. The supernatant was dried under nitrogen at 60 °C, then cooled. Samples were reconstituted in 20% acetonitrile in water (v/v). […] Gradient separation was performed with water and 0.2% formic acid (Thermo Fisher Scientific, Waltham, MA, USA) as mobile phase A, and acetonitrile with 0.2% formic acid as mobile phase B. The method was qualified for the quantification range of 1–1000 ng/mL with accuracy and precision of ± 20%, except for at the lower limit of quantification when the accuracy and precision were ± 25%. Plasma concentrations were subject to noncompartmental analysis consistent with the route of administration using Phoenix WinNonlin (version 7.0, Certara, Princeton, NJ, USA).

Data set [7] can be described thus: Pharmacokinetics of oral tablets in dogs. In kind it is in vivo. Particulars: oral tablets 20 mg/dog, semaglutide: 300 mg SNAC, uncoated, MEDI7219: 100 mg NaCDC and 200 mg PG, pH 5.5 enteric, arithmetic mean (% CV).
On the set-up of data set [8]: method as in PMID 30429357. Particulars: oral semaglutide in dogs; cited from earlier work.
For data set [9] the following is noted: oral semaglutide with SNAC; cited from earlier work. An excerpt: Previous approaches to engineering peptide therapeutics include substitution with unnatural amino acids to protect proteolytically vulnerable sites, and lipidation to promote reversible serum protein binding and reduced renal clearance[40]–[42]. […] Ala[8] is replaced with artificial α-methyl-L-alanine to protect the peptide against serum DPP-IV and the peptide is mono-lipidated at Lys[26],[43]. Despite these modifications, semaglutide is still susceptible to rapid proteolytic degradation in th ...

Each structure is given as a SMILES string.

Regarding `CC[C@H](C)[C@H](NC(=O)[C@H](Cc1ccccc1)NC(=O)[C@H](CCC(=O)O)NC(=O)[C@H](CCCCNC(=O)COCCOCCNC(=O)COCCOCCNC(=O)CC[C@H](NC(=O)CCCCCCCCCCCCCCCCC(=O)O)C(=O)O)NC(=O)[C@H](C)NC(=O)[C@H](C)NC(=O)[C@H](CCC(N)=O)NC(=O)CNC(=O)[C@H](CCC(=O)O)NC(=O)[C@H](CC(C)C)NC(=O)[C@H](Cc1ccc(O)cc1)NC(=O)[C@H](CO)NC(=O)[C@H](CO)NC(=O)[C@@H](NC(=O)[C@H](CC(=O)O)NC(=O)[C@H](CO)NC(=O)[C@@H](NC(=O)[C@H](Cc1ccccc1)NC(=O)[C@@H](NC(=O)CNC(=O)[C@H](CCC(=O)O)NC(=O)C(C)(C)NC(=O)[C@@H](N)Cc1cnc[nH]1)[C@@H](C)O)[C@@H](C)O)C(C)C)C(=O)N[C@@H](C)C(=O)N[C@@H](Cc1c[nH]c2ccccc12)C(=O)N[C@@H](CC(C)C)C(=O)N[C@H](C(=O)N[C@@H](CCCNC(=N)N)C(=O)NCC(=O)N[C@@H](CCCNC(=N)N)C(=O)NCC(=O)O)C(C)C` [Semaglutide, semaglutide, reference compound], the “time to complete degradation in FaSSIF/pancreatin” value in data set [1] is listed as “less than 20 min”. Moreover, the “peptide bound to plasma proteins, human” value in data set [2] is “over 97%”. Moreover, the “peptide bound to plasma proteins, rat” value in [3] was “over 97%”. For the same compound, the “peptide bound to plasma proteins, dog” value in data set [4] (EScalate equilibrium shift assay) is “over 97%”. For the same compound, the “Fraction unbound peptide (%), dog” value in data set [4] (EScalate equilibrium shift, five dilutions of plasma in PBS, 1 h at room temperature, HPLC-QTOF MS) turned out to be 0.37%. The “peptide bound to plasma proteins, monkey” value in [5] is given as “over 97%”. The “mean bioavailability (%F)” value in data set [6] worked out at 0.08%. Also, in data set [7] (n = 9), the AUC0-inf was 1,440 (45.8) ng·h/mL and the “F (bioavailability, systemic fraction)” value is 0.08 (45.8) %. Further, in data set [7] (n = 9, listed as semaglutide), the “F (bioavailability, systemic fraction)” value was found to be 0.08%. In addition, the t½ in data set [7] (plasma, LC/MS, n = 9) is 60.5 (13.6) hours. Also, the “published bioavailability (%F) in dogs” value in data set [8] is listed as 1.22%. The “bioavailability of oral formulation with SNAC” value in data set [9] was 0.4–1%.

The values above are taken from article PMC8602401 (Scientific Reports, 2021).
